Laboratory results taken from patent publication US20060116360A1, “Method of administering anti-angiogenic agents and a method of treating disease using same” (priority 2004, published 2006).
Entries after “also recorded” stand apart in the source; their conditions may differ. Marks after values point to notes of the source that are not given here.

Experiments:
[1] = test system: vascular endothelial cell proliferation; details: endothelial versus tumor cell proliferation; cited from earlier work
[2] = test system: Tumor cell lines (Lewis lung carcinoma or MDA-MB-231); experiment: Wash-out in vitro anti-proliferation studies (cell counts) with ENMD-1198; type: cell-based
Protocol: Tumor cell lines (Lewis lung carcinoma or MDA-MB-231) were treated in vitro for varying times with varying concentrations of ENMD-1198. Over the course of a three-day study, on each study day the cells were exposed to ENMD-1198 for varying times (1, 2, 4, 6, or 24 hours) at the indicated concentrations. The medium was then removed and replaced with medium without ENMD-1198 for the remainder of each 24-hour period. For the 24-hour exposure wells, the medium was changed every day to provide 72 hours continuous exposure. Anti-proliferative activity was determined by cell counts after the third day of treatment.

[3] = Plasma 2ME2 pharmacokinetics in non-tumor bearing C57BL/6 mice; type: in vivo; details: for Cmin / Tmax / T½ / Cmax / AUC0-24: i.p.
Protocol: On day 7, plasma samples were collected at selected time points, and plasma unconjugated 2ME2 levels were determined using LC-MS/MS methodology.
The data for 0.5 mg q.i.d. over the first six hours was used to model steady state levels over a 24 hr. time period as shown in FIG. 2. Pharmacokinetic parameters were determined by noncompartmental analysis using WinNonLin (Pharsight, Mountain View, Calif.).
(§1) In further support of this paradigm, a significant inhibition of pulmonary metastases was obtained in tumor-bearing mice given 2ME2 by continuous infusion using Alzet pumps. Three days after injection of LLC cells, therapy was initiated i.p. with either vehicle control or with 2ME2 delivered through 7-day osmotic pumps (see FIG. 3A). The daily target levels of 2ME2 were calculated assuming an average pump rate of […]. To achieve a target level of 200 mg/kg/day, the concentration of 2ME2 in the osmotic pumps was prepared at 150 mg/mL. Asterisks indicate groups statistically different from vehicle control (α=0.05) as shown in A. To determine the PK profile of 2ME2 using this delivery scheme, non-tumor bearing male C57BL/6 mice (6 weeks of age) were treated i.p. for up to 7 days with 2ME2 at 1.8 mg/day (˜100 mg/kg/day) using 7-day osmotic pumps. On days 2, 4, and 7, plasma samples were collected and plasma 2ME2 levels were determined as described above (see FIG. 3B).

LLC cell line = experiment: Wash-out in vitro proliferation study mimicking i.v. dosing; type: cell-based; details: 3microM 2ME2 for 2 hours, then medium alone
Protocol: FIG. 1, Panel C: We designed a “wash-out” in vitro proliferation study to mimic the exposure profile following i.v. dosing. The LLC cell line was plated in 96-well plates. After 24 hours, medium containing 3microM 2ME2 was added. Cells were exposed to 3microM 2ME2 for 2 hours. The medium was then removed and replaced with medium alone (medium: DMEM/F12 (1:1)+10% FBS+2mM L-Glutamine).

Lewis lung carcinoma = Lewis lung carcinoma experimental pulmonary metastasis model; type: in vivo, mice; details: for antitumor activity, T/C: 100 mg/kg/day
Excerpt: A pharmacodynamic paradigm relating 2ME2 pharmacokinetics to activity in vivo was developed. Dose-response relationships were established for 2ME2 following administration by (a) i.v. bolus administration, (b) oral gavage, (c) i.p. bolus injection, (d) i.p. dose fractionation, (e) continuous i.p. infusion, or (f) drinking water ad libitum in animal models, including an experimental pulmonary metastatic Lewis lung carcinoma model, primary tumor cell xenograft models, and a model of rheumatoid arthritis. Plasma 2ME2 concentration was temporally assessed by GC-MS or LC-MS/MS methodology, and pharmacokinetic parameters were defined at effective doses.
These studies assess the effect of route of administration on the anti-tumor activity of 2ME2 in an orthotopic model of murine lung cancer. Three days following the intravenous injection of Lewis lung carcinoma (“LLC”), groups of ten mice were treated with 2ME2 (200 mg/kg) once every 24 hours (q.d.) by either oral gavage (p.o.) or intraperitoneal (i.p.) injection.
FIG. 1, Panel B: 2.5×10^5 Lewis lung carcinoma cells in a volume of 0.2 ml were i.v. injected into the lateral tail vein of C57BL/6 male mice, 5-6 weeks of age (Jackson Labs). Treatment was initiated three days later by daily i.v. injection with 2ME2. Following the final day of therapy, mice were sacrificed, lungs removed, washed in phosphate buffered saline and weighed. Results are expressed as lung weight gain in treated versus control animals.
Dose-dependent inhibition of pulmonary metastases was observed following daily bolus administration of 2ME2. Fractionating a bolus q.d. injection (once every 24 hours, 2 mg/injection, 100 mg/kg/day) into four smaller, equal doses (q6hr, 0.5 mg/injection, 100 mg/kg/day) improved the antitumor activity of 2ME2 (T/C=0.30 and 0.05, respectively, p<0.05).
as §1
In further support of this paradigm, a significant inhibition of pulmonary metastases was obtained in tumor-bearing mice given 2ME2 ad libitum access through their drinking water.

[4] = Plasma 2ME2 pharmacokinetics in non-tumor bearing C57BL/6 mice; type: in vivo; details: ad libitum drinking water, range over a 24 hr period
[5] = test system: Tumor cell lines (Lewis lung carcinoma or MDA-MB-231); experiment: Wash-out in vitro anti-proliferation studies (BrdU) with 2ME2; type: cell-based
Protocol: To mimic the effect of cyclic levels of 2ME2 seen after daily dosing, and to compare this to the effects of continuous exposure to 2ME2, we carried out a series of wash-out in vitro anti-proliferation studies. Tumor cell lines (Lewis lung carcinoma or MDA-MB-231) were treated in vitro for varying times with varying concentrations of 2ME2. Over the course of a three-day study, on each study day the cells were exposed to 2ME2 for varying times (1, 2, 4, 6, or 24 hours) at the indicated concentrations. The medium was then removed and replaced with medium without 2ME2 for the remainder of each 24-hour period. Anti-proliferative activity was determined using a BrdU proliferation assay according to the manufacturer's instructions after the third day of treatment (see FIGS. 4A and 4B).

[6] = test system: collagen-induced arthritis; experiment: Rat collagen-induced arthritis model, radiographic scores; type: in vivo
Excerpt: Using relevant PK data for any given formulation in a human or animal, it is possible for one skilled in the art to devise a dosing strategy-a combination of dose level and dose frequency-which will result in substantially continuous maintenance of the plasma level of the agent within the desired concentration range and so maximize the pharmacological activity, in this case anti-arthritic or anti-inflammatory activity.

H2122 human NSCLC cells = experiment: Orthotopic H2122 NSCLC rat tumor model, survival; type: in vivo, rats
Protocol: Female athymic nude rats were injected i.t. with H2122 human NSCLC cells (1×10^6 in 0.2 mL). Seven days later, daily therapy was initiated p.o. with either vehicle control or 2ME2 at 10 or 60 or 300 mg/kg/d (n=15 rats/group). Animals were monitored closely for signs of morbidity and median survival times (MST) were determined. The study was terminated 50 days post tumor cell injection. In a separate cohort of non-tumor-bearing rats, plasma 2ME2 concentrations were determined at selected time points following a single oral gavage at 60 and 300 mg/kg. The PK data in Table 3 represents the range of 2ME2 concentrations in a 24 hour period. […] Using relevant PK data for any given formulation in a human or animal, it is possible for one skilled in the art to devise a dosing strategy—a combination of dose level and dose frequency—which will result in substantially continuous maintenance of the plasma level of the agent within the desired concentration range and so maximize the pharmacological activity, in this case anti-tumor activity.

[7] = short-term incubation, even at high concentrations
[8] = 0.5 q.i.d., modelled from first six hours

## CO[C@@H]1[C@H](OC(=O)NC(=O)CCl)CC[C@]2(CO2)[C@H]1[C@@]1(C)O[C@@H]1CC=C(C)C [AGM-1470]
[1]
  lower concentration for half-maximal inhibition of vascular endothelial cell proliferation than of tumor cell proliferation: 4 logs

## COc1cc2c(cc1C(N)=O)CC[C@@H]1[C@@H]2CC[C@]2(C)C=CC[C@@H]12 [ENMD-1198]
[2]; continuous exposure (72 hours)
  inhibition of proliferation in vitro: maximal inhibition of proliferation
[2]; [7]
  anti-proliferative activity in vitro: does not result in much anti-proliferative activity

## COc1cc2c(cc1O)CC[C@@H]1[C@@H]2CC[C@]2(C)[C@@H](O)CC[C@@H]12 [Formulation 2ME2, 2-methoxyestradiol]
[3]; 0.5 q.d., day 7
  Cmin: 0.00146 µg/mL
  Tmax: 0.5 h
  T½: 1.1 h
[3]; 0.5 q.d., day 7, plasma unconjugated 2ME2
  Cmax: 0.325 µg/mL
[3]; 0.5 q.d., day 7, = AUC0-6*4
  AUC0-24: 826.5^a ng/mL*hr
[3]; [8]
  AUC0-24: 836.1 ng·h/mL
  Cmin: 0.0015 µg/mL
  Tmax: 18.5 h
  T½: 1.1 h
[3]; 0.5 q.i.d., steady state over 24 hr modelled from first six hours
  Cmax: 0.32609 µg/mL
[3]; 2.0 q.d., day 7
  AUC0-24: 13570.9 ng·h/mL
  Cmax: 14.07 µg/mL
  Cmin: 0.00086 µg/mL
  Tmax: 0.5 h
  T½: 3.2 h
[3]; continuous i.p. infusion, Alzet osmotic pumps, ~100 mg/kg/day
  plasma exposure levels: 9 to 25 ng/mL
LLC cell line
  anti-proliferative effect of transient exposure: poor anti-proliferative effect; also recorded: did not result in much anti-proliferative activity
Lewis lung carcinoma; 2ME2 200 mg/kg q.d. i.p. injection
  inhibition of pulmonary metastases, T/C: 0.17
Lewis lung carcinoma; 2ME2 200 mg/kg q.d. oral gavage (p.o.)
  inhibition of pulmonary metastases, T/C: 0.28
Lewis lung carcinoma; 2ME2 ad libitum through drinking water
  inhibition of pulmonary metastases, T/C: 0.16
Lewis lung carcinoma; bolus q.d., 2 mg/injection
  antitumor activity, T/C: 0.30
Lewis lung carcinoma; continuous i.p. infusion, Alzet osmotic pumps, calculated dose ~100 mg/kg/day
  growth inhibition of pulmonary metastases: 89%
Lewis lung carcinoma; daily i.v. injection, transiently high levels
  anti-tumor activity in vivo (lung weight gain): did not result in significant anti-tumor activity
Lewis lung carcinoma; q6hr, 0.5 mg/injection
  antitumor activity, T/C: 0.05
[4]
  plasma 2ME2 concentrations: 3 to 15 ng/mL
[5]; continuous exposure
  inhibition of proliferation in vitro: maximal inhibition of proliferation
[5]; [7]
  anti-proliferative activity in vitro: does not result in much anti-proliferative activity
[6]; 2ME2 50 mg/kg p.o. b.i.d
  radiographic scores on day 28: 2.11±0.18
[6]; 2ME2 60 mg/kg s.c. continuous infusion (Alzet pumps)
  radiographic scores on day 28: 1.5±0.18
[6]; 2ME2 100 mg/kg p.o. q.d.
  radiographic scores on day 28: 2.88±0.21
H2122 human NSCLC cells; 2ME2 10 mg/kg/d p.o.
  % Survival on Day 50: 13%
  Median Survival Time: 18.5 days
H2122 human NSCLC cells; 2ME2 60 mg/mk/d p.o.
  % Survival on Day 50: 20%
  Median Survival Time: 26 days
H2122 human NSCLC cells; 2ME2 300 mg/kg/d p.o.
  % Survival on Day 50: 47%
  Median Survival Time: 43 days
H2122 human NSCLC cells; oral gavage, plasma 2ME2 3-17 ng/mL
  increase in median survival time as compared to diluent-treated controls: 2.5 fold
